Assay results reported in patent publication US8187822B2, “Methods to identify modulators” (Givaudan S.A., priority 2007, dated 2012).

Biological target: T1, TAS2R46 (Homo sapiens, UniProt P59540)
T1 construct: The full length gene of human TAS2R44 was amplified by polymerase chain reaction (PCR) using gene-specific primers that span the entire coding region; RSS tag (first 45 amino acids of rat somatostatin receptor subtype 3) (N); expressed in transfected cells; host or cells: HEK293T/Gα16-gustducin 44 cells, transient transfection
T1 sequence (P59540 1-309): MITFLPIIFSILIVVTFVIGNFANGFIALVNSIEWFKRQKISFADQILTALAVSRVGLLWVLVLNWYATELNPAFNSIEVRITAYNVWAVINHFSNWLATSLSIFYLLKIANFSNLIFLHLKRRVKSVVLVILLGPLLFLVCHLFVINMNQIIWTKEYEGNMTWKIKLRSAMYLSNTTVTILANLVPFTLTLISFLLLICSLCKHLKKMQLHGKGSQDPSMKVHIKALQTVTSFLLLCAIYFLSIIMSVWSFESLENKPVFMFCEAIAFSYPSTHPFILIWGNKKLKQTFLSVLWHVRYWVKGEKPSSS
Test: Fluo-4 calcium assay, HEK293T/Gα16-gustducin44 cells transiently expressing TAS2R46
Format: cell-based
Description: On day 0, the HEK293T/Gα16-gustducin 44 cells are plated in 96-well black wall, clear-bottom plates at a density of 14,000 cells per well and grown overnight in growth media (DMEM with 10% (v/v) heat-inactivated fetal bovine serum, 2 mM L-glutamine, 100 units/ml penicillin, 100 μg/ml streptomycin).
On day 1, the media is changed to an antibiotic-free and serum-free DMEM.
The cells are transfected with Lipofectamine 2000 (Invitorgen) according to the manufacturers recommendations.
Per well of a 96-well plate, 150 ng of vector DNA (SABTR expression vectors or TAS2R16 expression vector from example 1) is diluted in 12.5 μl of DMEM. In a second tube, 0.3 μl of Lipofectamine 2000 is diluted in 12.5 μl of DMEM and incubated for 5 min at room temperature. After the 5 min, both solutions are mixed and incubated for 20 min at RT. The growth medium in the plate is exchanged by 50 μl of DMEM and 25 μl of the lipofectamine/DNA mixture is incubated on the cells for 3-4 hours at 37° in a humidified atmosphere. This mixture is then replaced with an antibiotic-free, serum-containing DMEM.
24 hours post transfection, the cells are used in the Fluo-4 Calcium Assay described in Example 3.
At day 0, the HEK293T cell line expressing Gα16-gustducin44 and a TAS2R bitter taste receptor formed as described in examples 2b or 2c was seeded in antibiotic-free growth medium (standard DMEM with 10% (v/v) heat-inactivated fetal bovine serum, 2 mM L-glutamine[…]) into black wall/clear bottom 96-well plates, coated with poly(ethylenimine) (0.005% v/v) at a concentration of 15,000 cells per well and incubated for 48 hours in humidified atmosphere (37° C., 5% CO2).
At the time of the assay, the growth medium was discarded and the cells were in humidified atmosphere (37° C., 5% CO2) for 1 hour with 50 μl of loading buffer consisting of 1.5 μM Fluo-4 AM and […] probenicid (Sigma-Aldrich, St. Louis, Mo., US) in DMEM.
Afterwards, the 96-well plate was washed 5 times with 100 μl of assay buffer (130 mM NaCl, 5 mM KCl, 10 mM HEPES, 2 mM CaCl2, and 5 mM dextrose, pH 7.4) per well, using an automated plate washer (BioTek). The plate was further incubated for 30 minutes at room temperature in the dark to allow for complete de-esterification of the Fluo-4. Afterwards the plate was washed 5 times with 100 μl of assay buffer per well, and reconstituted with 100 μl of assay buffer per well.
For assay reading, the plate was placed in a Fluorometric Imaging Plate Reader (FLIPR) (FLIPR-TETRA™, Molecular Devices, Sunnyvale, Calif., US), and receptor activation was initiated by addition of 100 μl of a twofold concentrated agonist stock solution (to give the desired agonist end concentration when added to the 100 microliter assay buffer volume), which was prepared in assay buffer.
Fluorescence was continuously monitored for 20 seconds to give a signal baseline (averaged to give F0) prior to agonist addition and for 120 seconds after agonist addition. The change in signal divided by F0 gives ΔF/F0 indicated in the table, with ΔF being the maximum signal occurring within the 120 seconds minus the minimum signal (occurring within the 120 seconds after agonist addition.
All data was collected from at least two independent experiments each carried out in triplicate.
The obtained calcium signals were corrected for the response of cells expressing only the G Protein α subunit (Gα16-gustducin44) and normalized to the fluorescence of cells prior to the stimulus using ΔF/F0 (Fmax−Fmin/F0).
The intracellular calcium response following addition of sucralose was determined in HK293T cell line stably expressing Gα16-gustducin44 and transiently expressing TAS2R46 formed as described in example 2b.

OC[C@H]1O[C@H](O[C@]2(CCl)O[C@H](CCl)[C@@H](O)[C@@H]2O)[C@H](O)[C@@H](O)[C@H]1Cl [Sucralose, sucralose]
calcium signaling in TAS2R46 cells, in words: significant concentration-dependent increase in calcium signaling
TAS2R46 ΔF/F0 (sucralose 0.3906 mM): 0.041
TAS2R46 ΔF/F0 (sucralose 0.7813 mM): 0.038
TAS2R46 ΔF/F0 (sucralose 1.5625 mM): 0.035
TAS2R46 ΔF/F0 (sucralose 3.1250 mM): 0.036
TAS2R46 ΔF/F0 (sucralose 6.2500 mM): 0.057
TAS2R46 ΔF/F0 (sucralose 12.5000 mM): 0.075
TAS2R46 ΔF/F0 (sucralose 25.0000 mM): 0.106
TAS2R46 ΔF/F0 (sucralose 50.0000 mM): 0.171
TAS2R46 ΔF/F0 (sucralose 100.0000 mM): 0.258
